What all share (assay): NCI anticancer screen, dose series, 48 h
The subject of assay [1] is 786-0 renal.
Assay [2] relates to A549 NSCLC.
Assay [3] concerns HOP-62 NSCLC.
For assay [4], the system named is MOLT-4 leukemia.
Assay [5] has as its system NCI-H460 lung.
The subject of assay [6] is NCI-H522 lung.
Assay [7] relates to OVCAR-4 ovarian.
Assay [8] has as its system SF-268 CNS.
Assay [9] has as its system SK-OV-3 ovarian.
The subject of assay [10] is UO-31 renal.

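Step 1: Grow cells in 96-well plates. Step 2: Expose to compound for 48 hours at 5 concentrations. Step 3: Interpolate endpoints linearly; if unreached, use highest concentration. GI50: concentration for 50% inhibition of growth. TGI is the concentration that stops growth completely.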 A value given as a limit tells only on which side of the number the result lay.

Regarding `O=[N+]([O-])c1ccc2c(c1)[O][Sn][O]2`, the GI50 was 139 µg/mL in [1]; more than 150 µg/mL in [2]; more than 150 µg/mL in [3]; 33 µg/mL in assay [4]; 69.5 µg/mL in [5]; 4.23 µg/mL in assay [6]. The GI50 was more than 150 µg/mL in assay [7], 47.6 µg/mL in assay [8], more than 150 µg/mL in assay [9] and 125 µg/mL in [10]. Further, the TGI in assay [1] was more than 150 µg/mL; in assay [2], more than 150 µg/mL; in assay [3], more than 150 µg/mL; in assay [4] it was more than 150 µg/mL; in assay [5], more than 150 µg/mL; in assay [6], 69.5 µg/mL. Besides, the TGI in [7], in assay [8], in [9] and in assay [10] was more than 150 µg/mL throughout.
On to `COC(=O)C1=C(C(=O)OC)SC(=C(Cl)C(=S)Sc2ccccc2N)S1`, for which the GI50 is 16.9 µM in assay [1]; 22.3 µM in assay [2]; 13.5 µM in assay [3]; more than 100 µM in [4]; 19.6 µM in assay [5]; 17.4 µM in assay [6]. In addition, the GI50 in assay [7] was 80.8 µM; in assay [8] it was 29.1 µM; in assay [9], 41.3 µM; in assay [10], 27 µM. Also, the TGI in assay [1] was 36.1 µM; in assay [2], 59.2 µM; in assay [3] it was 33.2 µM; in [4] it was more than 100 µM; in assay [5], 35.5 µM; in assay [6] it was 43.1 µM. In addition, the TGI in [7] is more than 100 µM; in assay [8], 68.7 µM; in [9] it was more than 100 µM; in assay [10], more than 100 µM.
On to `C=C1C(=O)OC2/C=C(\C=O)CC/C=C(\C)C(O)C[C@@H]12` (stereo not given in full), for which the TGI in [1] came to 11.6 µM; in assay [2], 33.9 µM; in assay [3], 61.3 µM; in [4] it was 21.4 µM; in [5] it was 27.4 µM; in assay [6] it was 3.41 µM. Besides, the TGI in [7] was found to be 27.5 µM; in assay [8] it was 14.7 µM; in assay [9] it was 52.5 µM; in assay [10] it was 26.8 µM.
As for `C[C-](O)O.O/C(=C\[C-](O)c1ccccc1)c1ccccc1.O/C(=C\[C-](O)c1ccccc1)c1ccccc1.[Nd+3]` (stereo not given), the GI50 is 9.65 µM in assay [1]; 18.2 µM in assay [2]; 3.1 µM in assay [3]; 3.89 µM in assay [4]; 4.99 µM in [5]; 3.59 µM in assay [6]. Further, the GI50 in assay [7] is 15.9 µM; in assay [8], 6.44 µM; in assay [9] it was 16.8 µM; in [10] it was 3.73 µM. Moreover, the TGI in assay [1] was 32.7 µM; in [2], 48.9 µM; in assay [3] it was 15.7 µM; in [4], 28.7 µM; in [5] it was 71 µM; in assay [6] it was 28.9 µM. Besides, the TGI in assay [7] was more than 100 µM; in assay [8] it was 32.5 µM; in assay [9] it was 64.7 µM; in assay [10], 16 µM.
With `O=C1CC(=O)OC(c2ccc([N+](=O)[O-])cc2)O1`, the GI50 in assay [1] is 1.81 µM; in [2] it was 2.6 µM; in assay [3], 2.47 µM; in [4], 2.66 µM; in [5], 2.4 µM; in assay [6], 1.38 µM. Moreover, the GI50 in [7] is 2.82 µM; in assay [8] it was 2.93 µM; in assay [9] it was 7.05 µM; in [10] it was 1.64 µM. For the same compound, the TGI amounted to 3.36 µM in [1]; 7.78 µM in assay [2]; 6.79 µM in assay [3]; 8.41 µM in assay [4]; 5.9 µM in assay [5]; 2.72 µM in assay [6]. The TGI in [7] came out at 8.91 µM; in [8], 11 µM; in [9], 19.2 µM; in assay [10] it was 3.55 µM.
Consider `N#CC(NNC(=O)c1ccccc1O)c1cccc(O)c1` (stereo not given), for which the TGI in assay [1] was more than 100 µM; in assay [2], more than 100 µM; in assay [3], more than 100 µM; in [4], more than 100 µM; in assay [5], more than 100 µM; in [6] it was 98.5 µM. Also, the TGI in assay [7] was more than 100 µM; in assay [8], more than 100 µM; in [9] it was more than 100 µM; in assay [10] it was 5.63 µM.
As for `O=C(OC[C@H]1O[C@@H](OC(=O)c2cc(O)c(O)c(O)c2)[C@H](OC(=O)c2cc(O)c(O)c(O)c2)[C@@H](OC(=O)c2cc(O)c(O)c(O)c2)[C@@H]1OC(=O)c1cc(O)c(O)c(O)c1)c1cc(O)c(O)c(O)c1`, the TGI is 21.2 µM in [1]; 19.8 µM in [2]; 14.4 µM in assay [3]; 86.5 µM in assay [4]; 24.8 µM in assay [5]; 14.2 µM in [6]. In addition, the TGI in assay [7] is 41.1 µM; in [8], 33.7 µM; in assay [9], more than 100 µM; in [10], 19.2 µM.
Turning to `C[N+]1(C)C/C(=C\c2ccncc2)C(=O)/C(=C/c2ccncc2)C1`, the TGI in assay [1] is more than 100 µM; in assay [2], more than 100 µM; in assay [3], more than 100 µM; in assay [4] it was more than 100 µM; in [5], more than 100 µM; in [6], 42 µM. The TGI in [7] was more than 100 µM; in assay [8] it was 84.7 µM; in assay [9], more than 100 µM; in assay [10], more than 100 µM.
`O=C1c2ccccc2-n2c1nc1ccccc1c2=O`: the TGI is more than 100 µM in [1]; 17 µM in [2]; 41 µM in assay [3]; more than 100 µM in assay [4]; 12 µM in assay [5]; 64.3 µM in assay [6]. Moreover, the TGI is 53.7 µM in [7], more than 100 µM in assay [8], more than 100 µM in [9] and 42.9 µM in assay [10].

These data come from PubChem BioAssay (NCI).
